Laboratory results reported in paper PMC11336835 (Heliyon, 2024).
Values after ≈ are worked out from the molar mass of the structure shown. Where two headings read alike, the source gives them in different places. *1 amine or outer side, *2 acyl side, *3 side chain or, on linkers, in order; H or OH if unused. Where a SMILES comes first, the peptide text is derived from it. Bridges are numbered along the chain shown (N, C = ends). Roman numbers before positions name the chains, in order. [ ]: non-standard residue; d: D form. Actinocin(9to1) = Cc1c2oc3c(C)ccc(C(=O)[*:1])c3nc-2c(C(=O)[*:2])c(N)c1=O; NMeV = CN[C@H](C(=O)O)C(C)C; Sar = CNCC(=O)O

Tests used:
[1] = test system: Mycobacterium tuberculosis H37Rv; experiment: Resazurin reduction growth inhibition assay, M. tuberculosis H37Rv; format: cell-based; conditions: for IC50: Mycobacterium tuberculosis, H37RV, read-out: IC50 against Mycobacterium tuberculosis H37Rv; for IC50 / IC50 against Mycobacterium tuberculosis H37Rv: means ± SEM of triplicates
Shikimate kinase (MtSK) = molecular target: T1, Shikimate kinase (MtSK) (Mycobacterium tuberculosis, UniProt P9WPY3); experiment: Recombinant MtSK inhibition, ADP coupling assay; format: biochemical, M. tuberculosis; conditions: for IC50: read-out: Inhibition Concentration (IC50), MtSK (converted); for Ki: read-out: inhibition constant (Ki), MtSK (converted)
T1 construct: made in house; host or cells: E. coli
T1 sequence (P9WPY3 whole entry): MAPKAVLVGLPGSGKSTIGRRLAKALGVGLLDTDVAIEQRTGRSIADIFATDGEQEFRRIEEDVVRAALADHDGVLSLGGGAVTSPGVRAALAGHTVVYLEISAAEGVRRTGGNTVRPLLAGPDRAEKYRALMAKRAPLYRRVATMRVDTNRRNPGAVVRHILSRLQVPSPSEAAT
Method: In this study, we conducted enzymatic assays to assess the inhibition of the pure compound isolated in this experiment. We also assayed control and standard drugs (rifampicin and actinomycin D). At this time, we focused on three essential enzymes in M. tuberculosis: Shikimate kinase (MtSK), phosphopantothenoylcysteine synthetase phosphopantothenoylcysteine decarboxylase (MtCoABC), and 5-enolpyruvylshikimate-3-phosphate synthase (MtEPSPS), based on docking results. All these enzymes were prepared as recombinant proteins expressed in E. coli (details not included in this study or unpublished data). For the MtSK inhibition assessment, we quantified the production of ADP in the reaction using a coupling assay, as previously described. In the case of MtCoABC and MtEPSPS inhibition, we employed a pyrophosphate assay with the BIOMOL® Green reagent (Enzo Life Sciences). All assays were conducted on a 96-well plate format, with each well having a final volume of 50 μL.

Salmonella enterica = experiment: Antimicrobial spectrum assay, Salmonella enterica; format: cell-based; conditions: ND = no inhibition detected at maximum concentration tested (100 μg/mL)
[2] = test system: Mycobacterium smegmatis mc2155; experiment: Resazurin reduction growth inhibition assay, M. smegmatis; format: cell-based; conditions: for IC50: Mycolicibacterium smegmatis, MC2155, growth inhibition, resazurin, means ± SEM of triplicates, read-out: IC50 against Mycobacterium smegmatis
Staphylococcus aureus = experiment: Antimicrobial spectrum assay, Staphylococcus aureus; format: cell-based; conditions: for IC50: Staphylococcus aureus, read-out: IC50 against Staphylococcus aureus
[3] = Solubility of the purified compound in solvents; format: physicochemical; conditions: qualitative
Bacillus subtilis = experiment: Antimicrobial spectrum assay, Bacillus subtilis; format: cell-based; conditions: for IC50: Bacillus subtilis, read-out: IC50 against Bacillus subtilis
in vitro = conditions: human, DLD-1 colorectal adenocarcinoma cells
Method: The cytotoxicity assay involved the evaluation of cytotoxic effects on human cells using the colorectal adenocarcinoma cell line (DLD-1). The DLD-1 cells were cultured in a 75 cm^2 flask (Violamo) at 37 °C, with Roswell Park Memorial Institute (RPMI 1640) medium supplemented with 10 % FBS, 2.1 mM stable Glutamine, and 2.0 g/L NaHCO3. DLD-1 cells in a semiconfluent state were detached from the flask by incubating them with 5 mL of RPMI 1640 containing 0.25 % trypsin-EDTA to conduct the assay. After detachment, the DLD-1 cells were resuspended in RPMI 1640 supplemented with FBS, L-glutamine, and NaHCO3, and their cell viability was assessed using 0.4 % Trypan blue on a hemocytometer. Approximately 100 μL of the cell suspension, containing 3,000 cells, was added to each well of a 96-well clear-bottom plate. Cells were dispensed into the wells containing 2 μL of compounds dissolved in 50 % DMSO (final compound concentrations: 100, 20, 4, 0.8, and 0.2 μM and final DMSO concentration was 1 % each well). The culture plate was then incubated at 37 °C under 5 % CO2. Following 48 h of cultivation, 10 μL of Cell Counting Kit 8 (Dojindo, Japan) was added to each well, and the plates were further incubated for 2 h to examine cell growth and survival. The absorbance at 450 nm wavelength was measured using a microplate reader. The assay was conducted in triplicate for each dilution.

[4] = test system: Mycobacterium bovis var BCG; experiment: organism not typed; format: cell-based; conditions: for IC50: read-out: IC50 against Mycobacterium bovis var BCG

For `Cc1c2oc3c(C)ccc(C(=O)N[C@@H]4C(=O)N[C@H](C(C)C)C(=O)N5CCC[C@H]5C(=O)N(C)CC(=O)N(C)[C@@H](C(C)C)C(=O)O[C@@H]4C)c3nc-2c(C(=O)N[C@@H]2C(=O)N[C@H](C(C)C)C(=O)N3CCC[C@H]3C(=O)N(C)CC(=O)N(C)[C@@H](C(C)C)C(=O)O[C@@H]2C)c(N)c1=O` [F5(23), actinomycin D] (I: T[dV]P[Sar][NMeV] / II: T[dV]P[Sar][NMeV]; ester I:1-I:C, II:1-II:C; linker I:N-II:N via Actinocin(9to1)), the “increase in potency against M. tuberculosis compared to actinomycin D” value [1] was 10 fold, the IC50 ([1]; growth inhibition, resazurin) was 0.07 ± 0.009 µg/mL (≈ 0.0558 µM) and the “potency against M. tuberculosis compared to rifampicin” value ([1]; greater effect than rifampicin) was roughly 10 fold. For the same compound, the IC50 (Shikimate kinase (MtSK); recombinant enzyme) was 32.8 µM, the Ki (Shikimate kinase (MtSK); recombinant enzyme) was 46.2 µM and the “IC50 against Salmonella enterica” value (Salmonella enterica) was “no inhibitory effect”. The IC50 [2] was 0.74 ± 0.03 µg/mL (≈ 0.589 µM), the IC50 (Staphylococcus aureus) was less than 0.3 µg/mL and the solubility in solvents [3] was “soluble in dichloromethane, chloroform, methanol, ethyl acetate and DMSO”. For the same compound, the IC50 (Bacillus subtilis) was less than 0.3 µg/mL, the IC50 at 48 h (in vitro) was greater than 80 µg/mL and the “increase in potency against M. bovis compared to actinomycin D” value [4] was 10 fold. For the same compound, the IC50 [4] was 0.02 ± 0.01 µg/mL (≈ 0.0159 µM).
In the case of `CO[C@H]1/C=C/O[C@@]2(C)Oc3c(C)c(O)c4c(O)c(c(/C=N/N5CCN(C)CC5)c(O)c4c3C2=O)NC(=O)/C(C)=C\C=C\[C@H](C)[C@H](O)[C@@H](C)[C@@H](O)[C@@H](C)[C@H](OC(C)=O)[C@@H]1C` [Rifampicin], the “IC50 against Mycobacterium tuberculosis H37Rv” value ([1]; growth inhibition, resazurin) is reported as less than 0.01 µg/mL, the “IC50 against Mycobacterium tuberculosis H37Rv” value ([1]; growth inhibition, resazurin, listed as rifampicin) is reported as 0.8 ± 0.12 µg/mL (≈ 0.972 µM) and the IC50 [2] is reported as 0.48 ± 0.07 µg/mL (≈ 0.583 µM). It also gave an IC50 (Staphylococcus aureus) of less than 0.3 µg/mL, an IC50 (Bacillus subtilis) of less than 0.3 µg/mL and an IC50 [4] of less than 0.03 µg/mL.
`Cc1c2oc3c(C)ccc(C(=O)N[C@@H]4C(=O)N[C@H](C(C)C)C(=O)N5CCC[C@H]5C(=O)N(C)CC(=O)N(C)[C@@H](C(C)C)C(=O)O[C@@H]4C)c3nc-2c(C(=O)N[C@@H]2C(=O)N[C@H](C(C)C)C(=O)N3CCC[C@H]3C(=O)N(C)CC(=O)N(C)[C@@H](C(C)C)C(=O)O[C@@H]2C)c(N)c1=O` [Actinomycin D, actinomycin D] (I: T[dV]P[Sar][NMeV] / II: T[dV]P[Sar][NMeV]; ester I:1-I:C, II:1-II:C; linker I:N-II:N via Actinocin(9to1)) gave an IC50 ([1]; […]) of 0.8 ± 0.12 µg/mL (≈ 0.637 µM), an IC50 (Shikimate kinase (MtSK)) of 71.6 µM and a Ki (Shikimate kinase (MtSK)) of 94.9 µM. The “IC50 against Salmonella enterica” value (Salmonella enterica) was 14.65 ± 1.22 µg/mL (≈ 11.7 µM), the IC50 (Salmonella enterica; Salmonella enterica, read-out: IC50 against Salmonella enterica) was 14.7 µg/mL (≈ 11.7 µM) and the “IC50 against Mycobacterium smegmatis” value [2] was 0.78 ± 0.21 µg/mL (≈ 0.621 µM). For the same compound, the “IC50 against Staphylococcus aureus” value (Staphylococcus aureus) was less than 0.3 µg/mL, the “IC50 against Bacillus subtilis” value (Bacillus subtilis) was less than 0.3 µg/mL and the “IC50 against Mycobacterium bovis var BCG” value [4] was 0.8 ± 0.09 µg/mL (≈ 0.637 µM).
